In publication PMC9099118 (Clinical and Translational Science, 2022):

Test: Phase I safety: adverse events, Part A
Assay type: in vivo, human
Conditions: for Related AE / Total number of participants with at least one AE / Upper respiratory tract infection / Cough / Headache: n (%)
[1] = Part B MAD, 15 mg b.i.d. (n = 6)

CN(CCC#N)C1CCN(C(=O)Cn2cc(NC(=O)c3cnn4cccnc34)c(-c3cc(Cl)ccc3OC(F)F)n2)CC1 [GDC‐0214]
3: Total number of AEs (Part A SAD, 0.5 mg (n = 3))
6 (100%): Total number of participants with at least one AE (Part B MAD, 1 mg q.d. 14 days (n = 6)) | Total number of participants with at least one AE (Part B MAD, 10 mg q.d. 14 days (n = 6))
11: Total number of AEs (Part B MAD, 3 mg q.d. (n = 6))
2 (66.7%): Total number of participants with at least one AE (Part A SAD, 0.5 mg (n = 3))
1: Total number of AEs (Part A SAD, 0.15 mg (n = 3))
6: Total number of AEs (Part B MAD, 1 mg q.d. (n = 6))
4 (66.7%): Total number of participants with at least one AE (Part A SAD, 15 mg (n = 6)) | Total number of participants with at least one AE (Part B MAD, 3 mg q.d. 14 days (n = 6)) | Total number of participants with at least one AE (Part B MAD, 15 mg b.i.d. 14 days (n = 6))
0: AE leading to withdrawal from treatment (Part A SAD, 0.15 mg (n = 3)) | Serious AE (Part A SAD, 0.15 mg (n = 3)) | Total number of deaths (Part A SAD, 0.15 mg (n = 3)) | Total number of participants withdrawn from study due to an AE (Part A SAD, 0.15 mg (n = 3)) | Related AE (Part A SAD, 0.15 mg (n = 3)) | Upper respiratory tract infection (Part A SAD, 0.15 mg (n = 3)) | AE leading to withdrawal from treatment (Part A SAD, 0.5 mg (n = 3)) | Serious AE (Part A SAD, 0.5 mg (n = 3)) | Total number of deaths (Part A SAD, 0.5 mg (n = 3)) | Total number of participants withdrawn from study due to an AE (Part A SAD, 0.5 mg (n = 3)) | Related AE (Part A SAD, 0.5 mg (n = 3)) | Upper respiratory tract infection (Part A SAD, 0.5 mg (n = 3)) | AE leading to withdrawal from treatment (Part A SAD, 1.5 mg (n = 6)) | Serious AE (Part A SAD, 1.5 mg (n = 6)) | Total number of deaths (Part A SAD, 1.5 mg (n = 6)) | Total number of participants withdrawn from study due to an AE (Part A SAD, 1.5 mg (n = 6)) | AE leading to withdrawal from treatment (Part A SAD, 5 mg (n = 6)) | Serious AE (Part A SAD, 5 mg (n = 6)) | Total number of deaths (Part A SAD, 5 mg (n = 6)) | Total number of participants withdrawn from study due to an AE (Part A SAD, 5 mg (n = 6)) | Related AE (Part A SAD, 5 mg (n = 6)) | Upper respiratory tract infection (Part A SAD, 5 mg (n = 6)) | AE leading to withdrawal from treatment (Part A SAD, 15 mg (n = 6)) | Serious AE (Part A SAD, 15 mg (n = 6)) | Total number of deaths (Part A SAD, 15 mg (n = 6)) | Total number of participants withdrawn from study due to an AE (Part A SAD, 15 mg (n = 6)) | Upper respiratory tract infection (Part A SAD, 15 mg (n = 6)) | AE leading to withdrawal from treatment (Part B MAD, 1 mg q.d. (n = 6)) | Related serious AE (Part B MAD, 1 mg q.d. (n = 6)) | Serious AE (Part B MAD, 1 mg q.d. (n = 6)) | Total number of deaths (Part B MAD, 1 mg q.d. (n = 6)) | Total number of participants withdrawn from study due to an AE (Part B MAD, 1 mg q.d. (n = 6)) | Cough (Part B MAD, 1 mg q.d. (n = 6)) | Related AE (Part B MAD, 1 mg q.d. (n = 6)) | AE leading to withdrawal from treatment (Part B MAD, 3 mg q.d. (n = 6)) | Related serious AE (Part B MAD, 3 mg q.d. (n = 6)) | Serious AE (Part B MAD, 3 mg q.d. (n = 6)) | Total number of deaths (Part B MAD, 3 mg q.d. (n = 6)) | Total number of participants withdrawn from study due to an AE (Part B MAD, 3 mg q.d. (n = 6)) | AE leading to withdrawal from treatment (Part B MAD, 10 mg q.d. (n = 6)) | Related serious AE (Part B MAD, 10 mg q.d. (n = 6)) | Serious AE (Part B MAD, 10 mg q.d. (n = 6)) | Total number of deaths (Part B MAD, 10 mg q.d. (n = 6)) | Total number of participants withdrawn from study due to an AE (Part B MAD, 10 mg q.d. (n = 6)) | Cough (Part B MAD, 10 mg q.d. (n = 6)) | Headache (Part B MAD, 10 mg q.d. (n = 6)) | Related AE (Part B MAD, 10 mg q.d. (n = 6)) | AE leading to withdrawal from treatment [1] | Related serious AE [1] | Serious AE [1] | Total number of deaths [1] | Total number of participants withdrawn from study due to an AE [1] | Cough [1] | Related AE [1] | Upper respiratory tract infection [1]
5: Total number of AEs (Part A SAD, 1.5 mg (n = 6))
1 (33.3%): Total number of participants with at least one AE (Part A SAD, 0.15 mg (n = 3))
safe and well tolerated: safety and tolerability (up to a single dose of 15 mg or multiple doses up to 15 mg b.i.d. for 14 days)
1 (16.7%): Related AE (Part A SAD, 1.5 mg (n = 6)) | Related AE (Part A SAD, 15 mg (n = 6)) | Headache (Part B MAD, 1 mg q.d. (n = 6)) | Cough (Part B MAD, 3 mg q.d. (n = 6)) | Related AE (Part B MAD, 3 mg q.d. (n = 6))
4: Total number of AEs (Part A SAD, 15 mg (n = 6))
8: Total number of AEs [1]
2 (33.3%): Total number of participants with at least one AE (Part A SAD, 5 mg (n = 6)) | Upper respiratory tract infection (Part B MAD, 1 mg q.d. (n = 6)) | Headache (Part B MAD, 3 mg q.d. (n = 6)) | Upper respiratory tract infection (Part B MAD, 10 mg q.d. (n = 6)) | Headache [1]
mild or moderate: severity of adverse events (after single and multiple doses, all adverse events)
3 (50.0%): Total number of participants with at least one AE (Part A SAD, 1.5 mg (n = 6)) | Upper respiratory tract infection (Part B MAD, 3 mg q.d. (n = 6))
13: Total number of AEs (Part B MAD, 10 mg q.d. (n = 6))
2: Total number of AEs (Part A SAD, 5 mg (n = 6))
